In patent US5051499A, “Novel nucleoside-phospholipid conjugate” (Toyo Jozo Kabushiki Kaisha, priority 1986, dated 1991):

Each molecule was assayed on P-388 leukemic cells (assay: Antitumor activity against mouse leukemia P-388, increase in life span (ILS)). Details: P388, ip, 120 h, Table 2, i.p., once a day for 5 days, BDF1 mice.
Format: in vivo
Parameters: dose or concentration left out as unconfirmed
Description: Antitumor activity against mouse leukemia P-388 carcinoma is shown in the ensuring examples, according to the following list of specifications:
2. Animal: BDF1 mice, age 5 weeks, male, Charles River Inc., 5 mice in an experimental group at 7 control mice.
3. Tumor cells: P-388 leukemic cells; 1×10^6 /0.2 ml are inoculated intraperitoneally in BDF1 mice of the experimental group.
4. Preparation of samples and administration of drugs:
Samples are suspended in Tris-HCl saline solution by sonification. 0.1 ml/10g body weight is administered.
Administration: starting one day after inoculation of tumor cells, once a day for 5 days intraperiotoneally.
5. Increase in life span (ILS) is calculated by the following equation: [formula]
Average survival date in control group is 7.86 days (7.57-7.93 days).

Structure (SMILES)	ILS
CCCCCCCCCCCCCCCCOCC(COP(=O)(O)OC[C@H]1O[C@@H](n2cc(F)c(N)nc2=O)[C@@H](O)[C@@H]1O)OCCCCCCCCCCCCCCCC (stereo partly drawn) [cetyl cetyl AraFC]	152%
CCCCCCCCCCCCCCCCOCC(COP(=O)(O)OC[C@H]1O[C@@H](n2cc(F)c(=O)[nH]c2=O)[C@H](O)[C@@H]1O)OCCCCCCCCCCCCCCCC (stereo partly drawn) [cetyl cetyl FUR]	127%
CCCCCCCCCCCCCCCCOCC(COP(=O)(O)OCC1=C[C@@H](n2cnc3c(N)ncnc32)[C@H](O)[C@@H]1O)OCCCCCCCCCCCCCCCC (stereo partly drawn) [cetyl cetyl NepA]	34.9%
CCCCCCCC/C=C\CCCCCCCCOCC(COP(=O)(O)OC[C@H]1O[C@@H](n2cc(F)c(N)nc2=O)[C@@H](O)[C@@H]1O)OCCCCCCCC/C=C\CCCCCCCC (stereo partly drawn) [oleyl oleeyl AraFC]	148%
CCCCCCCC/C=C\CCCCCCCCOCC(COP(=O)(O)OC[C@H]1O[C@@H](n2cc(F)c(=O)[nH]c2=O)[C@H](O)[C@@H]1O)OCCCCCCCC/C=C\CCCCCCCC (stereo partly drawn) [oleyl oleyl FUR]	76%
CCCCCCCC/C=C\CCCCCCCCOCC(COP(=O)(O)OCC1=C[C@@H](n2cnc3c(N)ncnc32)[C@H](O)[C@@H]1O)OCCCCCCCC/C=C\CCCCCCCC (stereo partly drawn) [oleyl oleyl NepA]	26%
CCCCCCCCCCCCCCCCCCOCC(COP(=O)(O)OC[C@H]1O[C@@H](n2cc(F)c(N)nc2=O)[C@@H](O)[C@@H]1O)OCCCCCCCCCCCCCCCCCC (stereo partly drawn) [stearyl stearyl AraFC]	61%
CCCCCCCCCCCCCCCCCCOCC(COP(=O)(O)OC[C@H]1O[C@@H](n2cc(F)c(=O)[nH]c2=O)[C@H](O)[C@@H]1O)OCCCCCCCCCCCCCCCCCC (stereo partly drawn) [stearyl stearyl FUR]	31%
CCCCCCCCCCCCCCCCCCOCC(COP(=O)(O)OCC1=C[C@@H](n2cnc3c(N)ncnc32)[C@H](O)[C@@H]1O)OCCCCCCCCCCCCCCCCCC (stereo partly drawn) [stearyl stearyl NepA]	31%
